In ChEMBL document CHEMBL4118284, “Exploration of diphenylalkyloxadiazoles as novel cardiac myosin activator” (Bioorg Med Chem Lett, 2018):

Assays:
Bos taurus [1] = species on record: Bos taurus; assay: Activation of actin-stimulated bovine cardiac myosin S1 fragment ATPase activity in sarcomere at 10 uM after 10 mins by spectrophotometric analysis relative to control
Bos taurus [2] = species on record: Bos taurus; assay: Activation of actin-stimulated bovine cardiac myosin S1 fragment ATPase activity in sarcomere at 5 uM after 10 mins by spectrophotometric analysis relative to control
[3] = Activation of actin-stimulated bovine cardiac myosin S1 fragment ATPase activity in sarcomere after 10 mins by spectrophotometric analysis; set-up: species or system Bos taurus
Bos taurus [4] = species on record: Bos taurus; assay: Activation of actin-stimulated bovine cardiac myosin S1 fragment ATPase activity in sarcomere at 1 uM after 10 mins by spectrophotometric analysis relative to control
Gallus gallus = species on record: Gallus gallus; assay: Activation of actin-stimulated chicken gizzard smooth muscle myosin S1 fragment ATPase activity at 100 uM after 10 mins by spectrophotometric analysis relative to control
Oryctolagus cuniculus = species on record: Oryctolagus cuniculus; assay: Activation of actin-stimulated rabbit psoas skeletal muscle myosin S1 fragment ATPase activity at 100 uM after 10 mins by spectrophotometric analysis relative to control

Row | Compound | Activity (Bos taurus [1]) [%] | Activity (Bos taurus [2]) [%] | EC50 [3] [µM] | Activity (Bos taurus [4]) [%] | Activity (Gallus gallus) [%] | Activity (Oryctolagus cuniculus) [%]
1 | COc1ccc(-c2nnc(NCCCc3ccccc3)o2)cc1OC | 41.7 | – | – | – | – | –
2 | COc1ccc(-c2noc(CCCc3ccccc3)n2)cc1OC | 46.8 | – | – | – | – | –
3 | c1ccc(CCNc2nnc(-c3ccccc3)o2)cc1 | 35.2 | – | – | – | – | –
4 | COc1ccc(-c2nnc(CCCc3ccccc3)o2)cc1OC | 40.2 | – | – | – | – | –
5 | CN(C)S(=O)(=O)c1ccc(CCc2nnc(CCCc3ccccc3)o2)cc1 | 33.6 | – | – | – | – | –
6 | CN(C)S(=O)(=O)c1ccc(CCCc2nc(-c3ccccc3)no2)cc1 | 37.2 | – | – | – | – | –
7 | COc1ccc(Cc2nnc(CCCc3ccccc3)o2)cc1OC | 16.1 | – | – | – | – | –
8 | Fc1ccc(Cc2nnc(CCCc3ccccc3)o2)cc1 | 4.2 | – | – | – | – | –
9 | c1ccc(CCCc2nnc(Cc3ccccc3)o2)cc1 | 62.9 | 60.2 | 3.06 | 33.5 | -3.9 | 1.8
10 | c1ccc(CCCc2nc(-c3ccccc3)no2)cc1 | 60.7 | 56.4 | 3.18 | 31.9 | -2.4 | -5.3
11 | COc1ccc(CCc2nnc(CCCc3ccccc3)o2)cc1OC | 38.7 | – | – | – | – | –
12 | NS(=O)(=O)c1ccc(-c2nnc(NCCCc3ccccc3)o2)cc1 | 33 | – | – | – | – | –
13 | c1ccc(CCCc2nnc(CCCc3ccccc3)o2)cc1 | 2.5 | – | – | – | – | –
14 | c1ccc(CCCc2nnc(CCc3ccccc3)o2)cc1 | 51 | 45.3 | 4.5 | 29.7 | 4.1 | -3.1
15 | COC(=O)N1CCN(Cc2cccc(NC(=O)Nc3ccc(C)nc3)c2F)CC1 [OMECAMTIV MECARBIL] | 56.5 | 49.9 | 3.35 | 31.2 | -3.8 | 2.2
16 | c1ccc(CCCc2nc(Cc3ccccc3)no2)cc1 | 66.3 | 60.3 | 3.02 | 34.1 | 4.2 | 3.3

Row | Compound | Activity (Bos taurus [1]) [%] | Activity (Bos taurus [2]) [%] | EC50 [3] [µM] | Activity (Bos taurus [4]) [%] | Activity (Gallus gallus) [%] | Activity (Oryctolagus cuniculus) [%]
17 | c1ccc(CCCCNc2nnc(-c3ccccc3)o2)cc1 | 32.8 | – | – | – | – | –
18 | COc1ccc(Cc2noc(CCCc3ccccc3)n2)cc1OC | 18.4 | – | – | – | – | –
19 | c1ccc(CCCCc2nnc(C3CCOCC3)o2)cc1 | 11.2 | – | – | – | – | –
20 | c1ccc(CCCc2nnc(-c3ccncc3)o2)cc1 | 15.9 | – | – | – | – | –
21 | c1ccc(CCCc2nnc(-c3ccccc3)o2)cc1 | 59.2 | 55.2 | 3.27 | 32.5 | -3.7 | -2.5
22 | Cc1ccc2c(c1)C(=O)[C@]1(O)CCN(c3ccccc3)C1=N2 | – | – | – | – | -37.3 | -54.1
23 | c1ccc(CCCCc2nnc(-c3ccncc3)o2)cc1 | 8.6 | – | – | – | – | –
24 | CN(C)S(=O)(=O)c1ccc(CCCc2nnc(-c3ccccc3)o2)cc1 | 11.9 | – | – | – | – | –
25 | NS(=O)(=O)c1ccc(-c2nnc(CCCc3ccccc3)o2)cc1 | 22.5 | – | – | – | – | –
26 | c1ccc(CCCCc2nc(-c3ccccc3)no2)cc1 | 35.9 | – | – | – | – | –
27 | c1ccc(CCCNc2nnc(-c3ccncc3)o2)cc1 | 22.9 | – | – | – | – | –
28 | c1ccc(CCCc2nnc(C3CCOCC3)o2)cc1 | 30.8 | – | – | – | – | –
29 | COc1ccc(-c2nnc(CCCc3ccccc3)o2)cc1 | 37.3 | – | – | – | – | –
30 | c1ccc(CCCc2nnc(CCC3CCCCC3)o2)cc1 | 58.9 | 53.1 | 3.48 | 30 | 4.5 | -2.7
31 | c1ccc(CCCNc2nnc(-c3ccccc3)o2)cc1 | 50.5 | 42.6 | 5.25 | 28.4 | 2.3 | 1.9
